Results: PubChem BioAssay (NCI)
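Five concentrations, 48 hours, 96-well plates. GI50 marks 50% less growth. TGI denotes the concentration required for complete inhibition of growth.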

Experiments:
Test in all cases: growth of human tumour cells (NCI), 48 h
SR leukemia = tested on: SR leukemia
NCI-H460 lung = tested on: NCI-H460 lung
HOP-92 NSCLC = tested on: HOP-92 NSCLC
PC-3 prostate = tested on: PC-3 prostate
OVCAR-4 ovarian = tested on: OVCAR-4 ovarian
MALME-3M melanoma = tested on: MALME-3M melanoma
SF-268 CNS = tested on: SF-268 CNS
OVCAR-8 ovarian = tested on: OVCAR-8 ovarian
HCT-116 colon = tested on: HCT-116 colon
ACHN renal = tested on: ACHN renal
HS 578T breast = tested on: HS 578T breast
SK-MEL-2 melanoma = tested on: SK-MEL-2 melanoma
CCRF-CEM leukemia = tested on: CCRF-CEM leukemia
EKVX NSCLC = tested on: EKVX NSCLC

SMILES | TGI (SR leukemia) | TGI (NCI-H460 lung) | TGI (HOP-92 NSCLC) | TGI (PC-3 prostate) | TGI (OVCAR-4 ovarian) | TGI (MALME-3M melanoma) | TGI (SF-268 CNS) | TGI (OVCAR-8 ovarian) | TGI (HCT-116 colon) | TGI (ACHN renal) | TGI (HS 578T breast) | TGI (SK-MEL-2 melanoma) | TGI (CCRF-CEM leukemia) | TGI (EKVX NSCLC) | GI50 (HOP-92 NSCLC) | GI50 (PC-3 prostate) | GI50 (OVCAR-4 ovarian) | GI50 (MALME-3M melanoma) | GI50 (EKVX NSCLC) | GI50 (SK-MEL-2 melanoma)
Cc1ccc(NC(=S)NNC(=O)c2cc(-c3ccccc3)nc3ccccc23)cc1 | 6.72 µM | 47.9 µM | 25.8 µM | 32.2 µM | 35.6 µM | 34.6 µM | 34.8 µM | 47.8 µM | 21.3 µM | 31.3 µM | 38.2 µM | 24 µM |  |  |  |  |  |  |  | 
CSc1ncnc2c1cnn2CCCCO | > 100 µM | > 100 µM | > 100 µM | > 100 µM | > 100 µM | > 100 µM | > 100 µM |  | > 100 µM | > 100 µM | > 100 µM | > 100 µM | > 100 µM | > 100 µM |  |  |  |  |  | 
C[C@@]12CCC3C1C=C1C(=O)c4cc(O)ccc4C(=O)[C@]1(O2)[C@@]3(C)C=O | 5.89 µM | 10.6 µM | 20.8 µM | 19.5 µM | 15.7 µM |  | 36.7 µM | 42.6 µM | 12.8 µM | 17.1 µM | 75 µM | 20.2 µM | 4.02 µM | 22.5 µM |  |  |  |  |  | 
C[C@@H]1C[C@](O)([C@@H](C)Cl)C(=O)O[C@@H]2CCN3CC=C(COC(=O)[C@]1(C)O)[C@H]23 | > 100 µM | > 10 µM | > 100 µM | > 100 µM | > 100 µM |  | > 100 µM | > 100 µM | > 100 µM | > 10 µM | > 100 µM | > 100 µM | > 10 µM | > 100 µM |  |  |  |  |  | 
N#C/C(N)=C(\C#N)NC=NCc1ccccc1 | > 100 µM | > 100 µM |  | > 100 µM | > 100 µM | > 100 µM | > 100 µM | > 100 µM | > 100 µM | > 100 µM | > 100 µM | > 100 µM | > 100 µM | > 100 µM |  |  |  |  |  | 
O=C(CCc1cc(O)cc(O)c1)NCCc1cc(O)cc(O)c1 | > 100 µM | > 100 µM | > 100 µM | > 100 µM |  |  | > 100 µM | > 100 µM | > 100 µM | > 100 µM | > 100 µM | > 100 µM |  | > 100 µM |  |  |  |  |  | 
Cc1ccc(C(=O)N/N=C(\N=Nc2ccccc2[N+](=O)[O-])c2ccc(N(C)C)cc2)cc1 | > 100 µM | > 100 µM | > 100 µM | > 100 µM | > 100 µM |  | > 100 µM | > 100 µM | > 100 µM | > 100 µM | > 100 µM | > 100 µM | > 100 µM | > 100 µM |  |  |  |  |  | 
Cc1ccc(-c2c3c(n(C4OC(CO)C(O)C(O)C4O)c(=S)c2C#N)CC(C)(C)CC3=O)cc1 (centres undefined) | > 100 µM | > 100 µM | > 100 µM | > 100 µM | > 100 µM | > 100 µM | > 100 µM | > 100 µM | > 100 µM | > 100 µM | > 100 µM | > 100 µM | > 100 µM |  |  |  |  |  |  | 
COC(=O)C1(OC(=O)Sc2ccccc2)CCN(C)CC1 | 35.7 µM | 58.1 µM |  | > 83.5 µM | > 100 µM | > 100 µM | 62 µM | 52.7 µM | 53.6 µM | > 54.1 µM | 70.9 µM | > 100 µM | 19.7 µM | > 84.6 µM |  |  |  |  |  | 
COc1ccc(C(=O)/C=C/c2ccncc2)cc1OC | > 100 µM |  | 27.6 µM | 30.6 µM | 23.2 µM | 32.5 µM | 30.5 µM | 28.6 µM | 18.9 µM | 28.1 µM | 36.7 µM | 30.8 µM | 18.6 µM | 30.5 µM |  |  |  |  |  | 
Oc1ccc(-c2nc(-c3ccc(F)cc3)c(-c3ccc4ccccc4n3)[nH]2)cc1 | > 100 µM | 18.4 µM |  | 22.6 µM | 26.3 µM | 28.3 µM | 43.8 µM | 32 µM | 32.4 µM | 24.9 µM | 28.6 µM | 32.9 µM | > 100 µM | 40.7 µM |  |  |  |  |  | 
CC(=O)Nc1ccc(-c2nc3ccccc3s2)cc1 | > 100 µM | > 100 µM | > 100 µM | > 100 µM | > 100 µM |  | > 100 µM | > 100 µM | > 100 µM | 92.3 µM | > 100 µM | > 100 µM | > 100 µM | > 100 µM |  |  |  |  |  | 
COc1ccc(CCN=C2OCc3ccccc32)cc1OC | 62.3 µM | > 100 µM | > 100 µM | > 100 µM | > 100 µM | > 100 µM |  | > 100 µM | 71.3 µM | > 100 µM | > 100 µM | > 100 µM | > 100 µM | > 100 µM |  |  |  |  |  | 
CCOC(=O)c1ccc(C(=O)/C(C#N)=C2\CCCN2C)[nH]1 | > 100 µM | > 100 µM |  | > 100 µM | > 100 µM | > 100 µM | > 100 µM | > 100 µM | > 100 µM | > 100 µM | > 100 µM | > 100 µM | > 100 µM | > 100 µM |  |  |  |  |  | 
CCOC(=O)c1ccc(NC(=O)O/N=C(/Cl)CCl)cc1 | > 100 µM | > 100 µM |  | > 100 µM | > 100 µM | > 100 µM | > 100 µM | > 100 µM | > 100 µM | > 100 µM | > 100 µM | > 100 µM | > 100 µM | > 100 µM |  |  |  |  |  | 
COc1ccc(C(OCC2OC(n3cc(C)c(=O)[nH]c3=O)CC2n2cc(Cn3cc(Br)c(=O)[nH]c3=O)nn2)(c2ccccc2)c2ccccc2)cc1 (centres undefined) | > 100 µM |  | > 100 µM | > 100 µM | > 100 µM | > 100 µM | > 100 µM | > 100 µM | > 100 µM | > 100 µM | > 100 µM | > 100 µM | > 100 µM | > 100 µM |  |  |  |  |  | 
O=C(/C=C/C=C/c1ccccc1)c1ccc2c(c1)CCCC2 | 87.9 µM |  | 89.9 µM | > 100 µM | > 100 µM |  | 42.6 µM | > 100 µM | > 100 µM | > 100 µM | 30.4 µM | > 100 µM | > 100 µM | > 100 µM |  |  |  |  |  | 
COc1ccc(C(OC(C)=O)C2C(=C(C#N)C#N)c3ccccc3C2=C(C#N)C#N)cc1 (centres undefined) | 41 µM | > 100 µM | > 100 µM | 54.3 µM | > 100 µM |  | > 100 µM | > 100 µM | > 100 µM | > 100 µM | 91.6 µM | 83.8 µM | 62.6 µM | > 100 µM |  |  |  |  |  | 
Cc1cn(CCCCCOC(=O)NC(CCCN=C(N)N)C(=O)O)c(=O)[nH]c1=O (centres undefined) | 30.8 µM | > 100 µM | > 100 µM | > 100 µM | > 100 µM |  | > 100 µM | > 100 µM | > 100 µM | > 100 µM | 71.9 µM | > 100 µM | > 100 µM | > 100 µM |  |  |  |  |  | 
O=C1/C(=C/c2ccccc2)NC(=S)N1CN1CCOCC1 | > 100 µM |  | > 100 µM | > 100 µM | > 100 µM | > 100 µM | > 100 µM | > 100 µM | > 100 µM | > 100 µM | > 100 µM | > 100 µM | > 100 µM | > 100 µM |  |  |  |  |  | 
O=P(O)(Cc1ccccc1)c1ccccc1-c1ccccc1 | > 100 µM | > 100 µM |  | > 100 µM | > 100 µM | > 100 µM | > 100 µM | > 100 µM | > 100 µM | > 100 µM | > 100 µM | > 100 µM | > 100 µM | > 100 µM |  |  |  |  |  | 
CC(=O)OC1O[C@@H](C(C)(C)O)CC[C@@H]1[C@H]1CC[C@@]2(C)C3=C(CC[C@]12C)[C@@]1(C)C[C@@H](OC(=O)CC(C)(O)CC(=O)O)[C@H](OC(C)=O)C(C)(C)C1CC3 (some centres undefined) | 53.2 µM | 32.7 µM | 30.8 µM | 30.9 µM | 37.6 µM | 34.1 µM |  | 33.1 µM |  | 32.5 µM | 42.3 µM | 38.7 µM | 41.6 µM | 35.3 µM |  |  |  |  |  | 
CC(C)(C)C(=O)OC(N)/C=C/c1ccccc1 (centres undefined) | > 100 µM | > 100 µM | > 100 µM | > 100 µM | > 100 µM | > 100 µM |  | > 100 µM | > 100 µM | > 100 µM | > 100 µM | > 100 µM | > 100 µM | > 100 µM |  |  |  |  |  | 
Cc1c(CNc2ccc(C(=O)NC(CC(=O)O)C(=O)O)cc2)ccc2nc(N)nc(N)c12 (centres undefined) | > 1000 µM | > 1000 µM | > 1000 µM | > 1000 µM | > 1000 µM | > 1000 µM | > 1000 µM | > 1000 µM | > 1000 µM | > 1000 µM | > 1000 µM | > 1000 µM |  | > 1000 µM | > 1000 µM | < 0.01 µM | > 1000 µM | < 0.01 µM | > 1000 µM | > 1000 µM
Cc1cc(OCc2nnc3n2N=C(c2cc(F)c(Cl)cc2Cl)/C(=C/c2ccc(Cl)cc2)S3)ccc1Cl | 30.4 µM | > 100 µM | 45.8 µM | 65 µM | 59.8 µM |  | 51.4 µM | 39.7 µM | 66.9 µM | > 100 µM | 46.1 µM | > 100 µM | > 100 µM | > 100 µM |  |  |  |  |  | 
O=C(O)c1cccnc1 | > 100 µM | > 100 µM | > 100 µM | > 100 µM | > 100 µM | > 100 µM | > 100 µM | > 100 µM | > 100 µM | > 100 µM | > 100 µM |  | > 100 µM | > 100 µM |  |  |  |  |  | 
